Assay results: the supplement of paper PMC11208160

Test: recombinant UMI read abundance after kanamycin selection (control-corrected) (log10(CPM+1)); higher = more efficient recombination; extreme values may be limits of the assay; sequences stand for … in AGTGCAGAGAAAATCGGCCAGTTTTCTCTGCCTGCAGTCCGCATGCCGTGGGACCCCTTGGGTTCTAACCTGTTGCCTAGATTTATGCAGCGGACTGCCTTTCTCCCAAAGTGATAAACCGG…AGGTTGGTTTCACT; site = the 11-nt donor
Outline: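 After plating on IPTG (0.07 mM) plus kanamycin, or unselected, in two replicates, recombinant UMIs were PCR-amplified across the donor–target junction and sequenced. The cells were Escherichia coli co-electroporated with a UMI-tagged donor and donor-binding-loop pair library and a target plasmid with a fixed target and T7-inducible IS621 bridge recombinase. Values are log10(CPM+1), with CPM averaged over replicates and scaled by control-derived factors.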
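Also: IS621 bridge recombinase in Escherichia coli cells against a fixed T5 target plasmid.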

Sequence | recombinant UMI read abundance (log10)
AGAAGAGCATGGACCGGTTTTCCCGGTAATCCGTATTTGGA (site AGAAGAGCTTC) | 1.81
GTTGTTCCATGGACCGGTTTTCCCGGTAATCCGTATTTGAT (site GTTGTTCCTAA) | 0.0147
CCAGGTGCATGGACCGGTTTTCCCGGTAATCCGTATTTGAT (site CCAGCTGCTAT) | 0.00488
GAAGGTGCATGGACCGGTTTTCCCGGTAATCCGTATTTGAA (site GAAGGTGCTTT) | 2.08
CCCTTGTCATGGACCGGTTTTCCCGGTAATCCGTATTTGGG (site CCCTTGTCTCC) | 0.297
ATGTAGACATGGACCGGTTTTCCCGGTAATCCGTATTTGGC (site ATGTAGGCTGC) | 2.14
CGAGGACCATGGACCGGTTTTCCCGGTAATCCGTATTTGGG (site CGATGACCTCC) | 0.0104
GCGAAAACATGGACCGGTTTTCCCGGTAATCCGTATTTGCT (site ACGAAAACTAG) | 2.25
TAGAATCCATGGACCGGTTTTCCCGGTAATCCGTATTTGCA (site TAGAATTCTTG) | 0
GTGGACGCATGGACCGGTTTTCCCGGTAATCCGTATTTGTG (site GTGGACGCTCA) | 1.56
CTCTACACATGGACCGGTTTTCCCGGTAATCCGTATTTGCT (site CTTTACACTAG) | 0.644
GTTATTGCATGGACCGGTTTTCCCGGTAATCCGTATTTGAT (site GTTATTGCTAT) | 1.79
AGAACATCATGGACCGGTTTTCCCGGTAATCCGTATTTGCG (site AGAACATCTCG) | 2.3
GGCCAGACATGGACCGGTTTTCCCGGTAATCCGTATTTGAC (site GGCCAGACTGT) | 0.867
ACTGATGCATGGACCGGTTTTCCCGGTAATCCGTATTTGAC (site ACTGATGCTGT) | 2.08
GATTAGACATGGACCGGTTTTCCCGGTAATCCGTATTTGAC (site GATTTGACTGT) | 0
AGGGCAACATGGACCGGTTTTCCCGGTAATCCGTATTTGTT (site AGGGCAACTAA) | 0.85
CGAGGAACATGGACCGGTTTTCCCGGTAATCCGTATTTGTT (site CGCGGAACTAA) | 0.0367
AACTTGTCATGGACCGGTTTTCCCGGTAATCCGTATTTGGC (site AACTTGTCTGC) | 0
TCGGAATCATGGACCGGTTTTCCCGGTAATCCGTATTTGCG (site TGGGAATCTCG) | 0.211
CGTTCCCCATGGACCGGTTTTCCCGGTAATCCGTATTTGTA (site CGTTCCCCTTA) | 0.531
CCTTTCGCATGGACCGGTTTTCCCGGTAATCCGTATTTGAT (site CCTTTCGCTAT) | 0.0105
ACCGGTCCATGGACCGGTTTTCCCGGTAATCCGTATTTGCA (site GCCGGTCCTTG) | 0
GACACGTCATGGACCGGTTTTCCCGGTAATCCGTATTTGCC (site GACACGTCTGG) | 2.45
TTGCACGCATGGACCGGTTTTCCCGGTAATCCGTATTTGGT (site TTGCACGCTAC) | 0.647

Sequence | recombinant UMI read abundance (log10)
AACCGTCCATGGACCGGTTTTCCCGGTAATCCGTATTTGCT (site AACCGTCCTAT) | 0.0146
ATGCTGACATGGACCGGTTTTCCCGGTAATCCGTATTTGGT (site ATGCTGACTAC) | 1.32
CACTTGGCATGGACCGGTTTTCCCGGTAATCCGTATTTGGA (site CACTTGGCTTT) | 1.77
CACTTGGCATGGACCGGTTTTCCCGGTAATCCGTATTTGGG (site CACTTGGCTCC) | 0.0801
ACATCGACATGGACCGGTTTTCCCGGTAATCCGTATTTGTG (site ACATCTACTCA) | 0.00913
CGGACTGCATGGACCGGTTTTCCCGGTAATCCGTATTTGTT (site CGGACTGCTAA) | 2.12
CAGTAGACATGGACCGGTTTTCCCGGTAATCCGTATTTGGG (site CAGTGGACTCC) | 0.00992
GCTAGTGCATGGACCGGTTTTCCCGGTAATCCGTATTTGCC (site GCTACTGCTGG) | 0
TGGAAGACATGGACCGGTTTTCCCGGTAATCCGTATTTGCA (site TGGAAGACTTG) | 2.67
GTAGGTACATGGACCGGTTTTCCCGGTAATCCGTATTTGAC (site GTAGGGACTGT) | 1.8
AAACATCCATGGACCGGTTTTCCCGGTAATCCGTATTTGAC (site ACACATCCTGT) | 0
TAGGAGTCATGGACCGGTTTTCCCGGTAATCCGTATTTGCG (site TAGGAATCTCG) | 3.12
GATTCATCATGGACCGGTTTTCCCGGTAATCCGTATTTGAG (site GATTCATCTCT) | 1.31
TAGAATACATGGACCGGTTTTCCCGGTAATCCGTATTTGCC (site TAGAATACTCG) | 0
AGAACAACATGGACCGGTTTTCCCGGTAATCCGTATTTGAT (site AGAACAACTAT) | 1.63
GGCCTGGCATGGACCGGTTTTCCCGGTAATCCGTATTTGAG (site GGCCTGGCTCT) | 0.666
CCTAATACATGGACCGGTTTTCCCGGTAATCCGTATTTGGG (site CCTAATACTCC) | 0.011
GTTGTTCCATGGACCGGTTTTCCCGGTAATCCGTATTTGGG (site GTTGTTCCTCC) | 0.0029
AGCCTTACATGGACCGGTTTTCCCGGTAATCCGTATTTGAC (site AGCCTTTCTGT) | 0
GGCCACTCATGGACCGGTTTTCCCGGTAATCCGTATTTGTT (site GGCCACGCTAA) | 0.00402
AGGCAGACATGGACCGGTTTTCCCGGTAATCCGTATTTGCT (site AGGAAGACTTG) | 0
GGTACGTCATGGACCGGTTTTCCCGGTAATCCGTATTTGGT (site GGTACGTCTAG) | 0
AGGAAGACATGGACCGGTTTTCCCGGTAATCCGTATTTGCA (site AGGAGGACTTT) | 0.0142
AGATAGGCATGGACCGGTTTTCCCGGTAATCCGTATTTGCT (site AGAAAGGCTAG) | 0.622
ACAGAATCATGGACCGGTTTTCCCGGTAATCCGTATTTGCT (site ACAGTATCTTG) | 0.97

Sequence | recombinant UMI read abundance (log10)
GTAGGCACATGGACCGGTTTTCCCGGTAATCCGTATTTGAC (site GTAGGTACTGT) | 0.00895
GTTGTTCCATGGACCGGTTTTCCCGGTAATCCGTATTTGGC (site GTTGTTCCTGC) | 0
CATCTGCCATGGACCGGTTTTCCCGGTAATCCGTATTTGCC (site CATCTGCCTGG) | 0
GTGCTCCCATGGACCGGTTTTCCCGGTAATCCGTATTTGAC (site GTGCTCCCTGT) | 1.9
TCCCAATCATGGACCGGTTTTCCCGGTAATCCGTATTTGTG (site TCCCAATCTCA) | 0.00796
TGGTAGGCATGGACCGGTTTTCCCGGTAATCCGTATTTGGT (site TGTTAGGCTAC) | 0.307
TCACCTGCATGGACCGGTTTTCCCGGTAATCCGTATTTGCG (site TCACCTGCTCG) | 0.016
GAAGAGGCATGGACCGGTTTTCCCGGTAATCCGTATTTGTA (site GAAGAGGCTTA) | 1.64
CGGCATCCATGGACCGGTTTTCCCGGTAATCCGTATTTGGT (site CGGCATCCTAC) | 0.00636
CGGTCTTCATGGACCGGTTTTCCCGGTAATCCGTATTTGCT (site CGGTCTTCTAG) | 1.49
AGCAACGCATGGACCGGTTTTCCCGGTAATCCGTATTTGTG (site AGCAACGCTCA) | 1.36
CACTTAGCATGGACCGGTTTTCCCGGTAATCCGTATTTGGA (site CACTTAGCTTC) | 1.16
CAATTGGCATGGACCGGTTTTCCCGGTAATCCGTATTTGGA (site CATTTGGCTTC) | 0.313
CAGGTCACATGGACCGGTTTTCCCGGTAATCCGTATTTGGG (site CATGTCACTCC) | 0.0163
ATGTGCCCATGGACCGGTTTTCCCGGTAATCCGTATTTGCG (site ATGTGCCCTCG) | 0
GGGAGGACATGGACCGGTTTTCCCGGTAATCCGTATTTGCC (site GGGAGGACTGG) | 2.04
GCAACTGCATGGACCGGTTTTCCCGGTAATCCGTATTTGCC (site GCGACTGCTGG) | 0
GCTTGCCCATGGACCGGTTTTCCCGGTAATCCGTATTTGAC (site GCTTGCCCTTT) | 0.0621
AGCATCCCATGGACCGGTTTTCCCGGTAATCCGTATTTGGC (site AGCATCCCTGC) | 1.74
CAAGCTCCATGGACCGGTTTTCCCGGTAATCCGTATTTGTG (site CAAGCCCCTCA) | 0.0101
GGTACGGCATGGACCGGTTTTCCCGGTAATCCGTATTTGTT (site GGTACGACTAA) | 0.00937
CTCTACACATGGACCGGTTTTCCCGGTAATCCGTATTTGCT (site CTCTTCACTAG) | 0.548
TCCAATACATGGACCGGTTTTCCCGGTAATCCGTATTTGCC (site TCCAATACTGG) | 0
TTTGCGGCATGGACCGGTTTTCCCGGTAATCCGTATTTGCG (site TTTGCGGCTTG) | 0.0091
CCGTTAGCATGGACCGGTTTTCCCGGTAATCCGTATTTGTG (site CCGGTAGCTCA) | 0.014
